{"source": "paper PMC10044445", "about": "“Tuning the Anthranilamide Peptidomimetic Design to Selectively Target Planktonic Bacteria and Biofilm” (Antibiotics, 2023)", "key": {"S. aureus": {"tested_on": "S. aureus", "assay": "Minimum inhibitory concentration, broth microdilution (CLSI)", "format": "cell-based, Staphylococcus aureus", "conditions": "for MIC: Table 2, lysine derivative versus parent, read-out: MIC S. aureus; for MIC90: broth microdilution in MHB, 18–24 h", "procedure": "(§1) The antimicrobial activity of the compounds was evaluated by a broth microdilution assay using the procedure described by CLSI. Briefly, bacteria were grown to mid-log phase in Muller Hinton broth (MHB) with shaking at 120 rpm and incubated at 37 °C for 12–16 h. Following incubation, bacteria were washed three times in PBS pH 7.4 at 3500 g for 10 min. After washing, bacteria were diluted with fresh MHB. The turbidity of the bacterial suspensions was adjusted so that OD660nm was 0.1, which gave 1 × 10^8 CFU/mL, and then further diluted to achieve 5 × 10^5 CFU/mL as a final bacterial concentration. Each compound was diluted (250–3.9 µM) through two-fold dilution. Wells in microtiter plates were loaded with 100 µL of inoculum containing 5 × 10^5 CFU/mL bacteria. Wells without any compound and containing only bacteria were used as negative controls (i.e., no inhibition of growth). Wells with media only were set as blank. The microtiter plate was wrapped with paraffin to prevent evaporation and incubated with shaking at 120 rpm and 37 °C for 18–24 h. After incubation, spectrophotometric readings were taken. The well without any bacterial growth and showing zero spectrophotometric reading was regarded as the MIC of the compounds."}, "E. coli": {"tested_on": "E. coli", "assay": "Minimum inhibitory concentration, broth microdilution (CLSI)", "format": "cell-based, Escherichia coli", "conditions": "for MIC / MIC90: Escherichia coli; for improvement in antibacterial activity against E. coli compared to the parent compound: versus parent 12a, 12j", "procedure": "as §1"}, "MRC-5 human fibroblasts": {"tested_on": "MRC-5 human fibroblasts", "assay": "Toxicity assay, Alamar Blue", "format": "cell-based", "conditions": "for IC50: MRC5, MRC-5 human fibroblasts, 72 h drug incubation, Alamar Blue", "procedure": "Normal human lung fibroblasts MRC-5 were cultured in minimal essential medium (MEM, Invitrogen) supplemented with 10% foetal calf serum (FCS), 1% L-glutamine–penicillin–streptomycin, 2% sodium bicarbonate, 1% non-essential amino acids (NEAA), and 1% sodium pyruvate. The cell line was maintained at 37 °C in 5% CO2 as an adherent monolayer and was passaged upon reaching confluence by standard cell culture techniques. MRC-5 cells were seeded at 2 × 10^4 cells per well in 96-well plates to ensure full confluence (quiescence). Cells were treated for 24 h after seeding with 0.1 to 1000 μM of compounds. After 72 h of drug incubation, the treated media was replaced with fresh media containing 10% Alamar Blue and the cells were incubated for another 6 h. The metabolic activity was detected by spectrophotometric analysis by assessing the absorbance of Alamar blue as previously described by Pasquier et al. Cell proliferation was determined and expressed as a percentage of untreated control cells. The determination of IC50 values was performed using GraphPad Prism 6 (San Diego, CA, USA). Each experiment was performed in triplicate and was repeated in three independent experiments."}, "E. coli K12": {"tested_on": "E. coli K12", "assay": "Cytoplasmic membrane permeability (depolarization) assay with DiSC3(5)", "format": "cell-based", "conditions": "2× MIC", "procedure": "(§2) Compounds 13d (series I), 16b (series II), 19a (series III) and 19b (series III) were selected as representative examples of each series with strong antibacterial activities (particularly against S. aureus). As AMPs are known to be membrane-targeting, membrane permeability assays are frequently used to confirm the mode of action of peptidomimetics. In this assay, S. aureus and E. coli were treated with the active compounds in the presence of the membrane potential-sensitive cyanine dye 3,3′-dipropylthiadicarbocyanine iodide (DiSC3(5)). Perturbation of the membrane by the compounds leads to loss of the membrane potential gradient (depolarization), causing the dye to be released into the medium and resulting in an increase in fluorescence intensity.\n(§3) The method was adopted from Wu et al. with slight modifications. Bacterial cytoplasmic membrane permeability was determined using membrane potential sensitive dye diSC3-5 (3,3′-dipropylthiadicarbocyanine iodide) which penetrates inside bacterial cells depending on the membrane potential gradient of the cytoplasmic membrane. Bacteria were grown in MHB to mid-log phase by incubating with shaking at 37 °C for 18–24 h. Following incubation, bacteria were washed with 5 mM HEPES containing 20 mM glucose pH 7.2 and resuspended in the same buffer to an OD600 0.05–0.06 which gave 1 × 10^7 CFU/mL. The dye diSC3-5 was added at 4 µM to the bacterial suspension. The suspensions were incubated at room temperature for 1 h in the dark for maximum dye take-up by the bacterial cells. Then, 100 mM KCl was added to balance the K+ outside and inside the bacterial cell to prevent further uptake or outflow of the dye. For Gram-negative bacteria, 0.5 mM EDTA was used to destabilize the lipopolysaccharides-Mg^2+-Ca^2+ complex to help in dye penetration without affecting bacterial growth. A total of 100 µL of bacterial suspension was added to 96-well microtiter plate and with equal volume of antimicrobial compounds. DMSO (20%) was set as a positive control while dye and only bacterial cells were set as a negative control. Fluorescence was measured with a luminescence spectrophotometer at 3 min intervals at an excitation wavelength of 622 nm and an emission wavelength of 670 nm.\n(§4) Figure 2 Cytoplasmic membrane depolarization of S. aureus 38 and E. coli K12 by 13d, 16b, 19a, 19b, as assessed by release of the membrane potential-sensitive dye DiSC3(5) measured spectroscopically at λex = 622 nm and λem = 670 nm at 2× MIC concentration. Data are presented as means (±SD) of three independent repeats. 20% DMSO was used as a positive control."}, "[1]": {"tested_on": "Bacillus subtilis strain BS23", "assay": "Membrane integrity study, epifluorescence microscopy (atpA-GFP)", "format": "cell-based", "conditions": "50 μM, 45 min", "procedure": "The mechanism of action of compounds 16b, 19a, and […] was further studied using Bacillus subtilis strain BS23, which contains a fusion of green fluorescence protein (GFP) to the α-subunit of the membrane-localized ATP synthase. In the assay, if the compounds damage the membrane, the green fluorescence will change from a uniform distribution to a clustered distribution. Epifluorescence microscopy was used to image the changes in the cells.\nBacillus subtilis BS23 (atpA-GFP) was grown in LB (10 g/L Tryptone, 5 g/L Yeast Extract, 5 g/L NaCl) supplemented with 0.5% (w/v) xylose at 37 °C, to an OD600 of 0.3 and then treated with 50 μM of the AMP mimics, 10 μg/mL of colistin or 0.25% (v/v) DMSO (vehicle control). The cells were grown for a further 45 min before being examined by epifluorescence microscopy. Micrographs were background subtracted, merged, and aligned in images.\nFigure 3 Epifluorescence microscopy images showing membrane integrity of B. subtilis strain BS23 treated with colistin (10 µg/mL) and compounds 16b, 19a, and 19b (50 µM)."}, "S. aureus biofilms": {"tested_on": "S. aureus biofilms", "assay": "Disruption of established biofilm, crystal violet staining", "format": "cell-based", "conditions": "24 h treatment", "procedure": "(§5) Bacteria in biofilms are 10–1000 times more resistant to conventional antibiotics than planktonic bacteria. Moreover, biofilms are insensitive to antiseptics and many host immune responses. Since up to 80% of all microbial infections are biofilm-related, an effective antibacterial agent should also be able to disrupt established biofilms to tackle bacterial infections.\n(§6) Bacterial cultures (S. aureus and E. coli) were grown in MHB media overnight at 37 °C with shaking at 120 rpm. Cultures were diluted (1:20) in an MHB medium and 200 μL aliquots were dispensed to flat bottom 96-well plate wells (Sarstedt, Mawson Lakes, Australia). Cultures were supplemented with varying concentrations of synthetic compounds dissolved in DMSO. Biofilm was grown in a 96-well plate for 24 h followed by the addition of synthetic compounds and incubated further for 24 h. Plates were sealed with self-adhesive microplate sealers (TopSeal-A, PerkinElmer) to allow air diffusion and to prevent condensation. Biofilms adhered on polystyrene substratum were quantified by crystal violet staining as described previously. The experiment was performed in triplicate.\nFigure 4 Disruption of established biofilms of S. aureus after 24 h treatment with 1× to 8× MIC concentrations of compounds 13d, 16b, 19a, 19b. The positive control represents the pre-established biofilms without any compounds. Error bars indicate the standard error of the mean (SEM) of three independent experiments."}, "E. coli biofilms": {"tested_on": "E. coli biofilms", "assay": "Disruption of established biofilm, crystal violet staining", "format": "cell-based", "conditions": "24 h treatment; for disruption of established E. coli biofilm (in words): 1× to 8× MIC", "procedure": "as §5, §6\nFigure 5 Disruption of established biofilm of E. coli after 24 h treatment with 1× to 8× MIC concentrations of compounds 13d, 16b, 19a, and 19b. The negative control represents pre-established biofilms without any compounds. Error bars indicate the standard error of the mean (SEM) of three independent experiments."}, "S. aureus 38": {"tested_on": "S. aureus 38", "assay": "Cytoplasmic membrane permeability (depolarization) assay with DiSC3(5)", "format": "cell-based", "conditions": "2× MIC", "procedure": "as §2, §3, §4"}, "[2]": {"conditions": "Table 2, lysine derivative versus parent, read-out: MIC E. coli"}, "[3]": {"conditions": "broth microdilution in MHB, 18–24 h"}}, "note": "Read-outs that look alike come from different tables or passages of the source.", "data": [{"smiles": "NCCCC[C@H](N)C(=O)NCCNC(=O)[C@H](Cc1c[nH]c2ccccc12)NC(=O)c1cc(Br)ccc1NC(=O)c1ccc2ccccc2c1", "note": "[Compound 19a, N-(4-bromo-2-(((S)-1-((2-((S)-2,6-diaminohexanamido)ethyl)amino)-3-(1H-indol-3-yl)-1-oxopropan-2-yl)carbamoyl)phenyl)-2-naphthamide]", "values": [{"measurement": "MIC", "setting": "S. aureus; Staphylococcus aureus", "result": 15.6, "unit": "µM"}, {"measurement": "MIC90", "setting": "S. aureus; Staphylococcus aureus", "result": 15.6, "unit": "µM"}, {"measurement": "MIC", "setting": "E. coli; [2]", "result": 15.6, "unit": "µM"}, {"measurement": "MIC90", "setting": "E. coli; [3]", "result": 15.6, "unit": "µM"}, {"measurement": "improvement in antibacterial activity against E. coli compared to the parent compound", "setting": "E. coli", "result": "> 16", "unit": "fold"}, {"measurement": "IC50", "setting": "MRC-5 human fibroblasts", "result": 83.9, "unit": "µM"}, {"measurement": "cytoplasmic membrane depolarization (DiSC3(5) release)", "setting": "E. coli K12", "result": "greater membrane disruption in E. coli than in S. aureus"}, {"measurement": "membrane damage (clustering of GFP fluorescence)", "setting": "[1]", "result": "caused membrane damage"}, {"measurement": "disruption of established S. aureus biofilm", "setting": "S. aureus biofilms; 2× MIC (31.2 µM)", "result": "over 60%"}, {"measurement": "disruption of established S. aureus biofilm", "setting": "S. aureus biofilms; 8× MIC (125 µM)", "result": "~99", "unit": "%"}, {"measurement": "disruption of established E. coli biofilm (in words)", "setting": "E. coli biofilms", "result": "not effective"}]}, {"smiles": "NCCCC[C@H](N)C(=O)NCCNC(=O)[C@H](Cc1c[nH]c2ccccc12)NC(=O)c1cc(Br)ccc1NC(=O)c1cccc(-c2ccccc2)c1", "note": "[Compound 19b, N-(4-bromo-2-(((S)-1-((2-((S)-2,6-diaminohexanamido)ethyl)amino)-3-(1H-indol-3-yl)-1-oxopropan-2-yl)carbamoyl)phenyl)-[1,1′-biphenyl]-3-carboxamide]", "values": [{"measurement": "MIC", "setting": "S. aureus; Staphylococcus aureus", "result": 15.6, "unit": "µM"}, {"measurement": "MIC90", "setting": "S. aureus; Staphylococcus aureus", "result": 15.6, "unit": "µM"}, {"measurement": "MIC90", "setting": "S. aureus", "result": 15.6, "unit": "µM"}, {"measurement": "MIC", "setting": "E. coli; [2]", "result": 15.6, "unit": "µM"}, {"measurement": "MIC90", "setting": "E. coli; [3]", "result": 15.6, "unit": "µM"}, {"measurement": "therapeutic window: IC50 to human cells over MIC90", "setting": "MRC-5 human fibroblasts; IC50 MRC-5 versus MIC90 for either S. aureus or E. coli", "result": "over 10 times"}, {"measurement": "IC50", "setting": "MRC-5 human fibroblasts", "result": 164, "unit": "µM"}, {"measurement": "cytoplasmic membrane depolarization (DiSC3(5) release)", "setting": "S. aureus 38", "result": "reversed trend"}, {"measurement": "membrane damage (clustering of GFP fluorescence)", "setting": "[1]", "result": "caused membrane damage"}, {"measurement": "disruption of established S. aureus biofilm", "setting": "S. aureus biofilms; 2× MIC (31.2 µM)", "result": "over 60%"}, {"measurement": "disruption of established S. aureus biofilm", "setting": "S. aureus biofilms; 8× MIC (125 µM)", "result": "~99", "unit": "%"}, {"measurement": "disruption of established E. coli biofilm (in words)", "setting": "E. coli biofilms", "result": "significant disruption"}, {"measurement": "disruption of E. coli biofilm mass", "setting": "E. coli biofilms; 2× MIC (62.4 µM)", "result": "little effect"}]}, {"smiles": "NCCCC[C@H](N)C(=O)NCCNC(=O)[C@H](Cc1c[nH]c2ccccc12)NC(=O)c1cc(Br)ccc1NC(=O)c1ccc(-c2ccccc2)cc1", "note": "[Compound 19c, N-(4-bromo-2-(((S)-1-((2-((S)-2,6-diaminohexanamido)ethyl)amino)-3-(1H-indol-3-yl)-1-oxopropan-2-yl)carbamoyl)phenyl)-[1,1′-biphenyl]-4-carboxamide]", "values": [{"measurement": "MIC", "setting": "S. aureus; Staphylococcus aureus", "result": 15.6, "unit": "µM"}, {"measurement": "MIC90", "setting": "S. aureus; Staphylococcus aureus", "result": 15.6, "unit": "µM"}, {"measurement": "MIC", "setting": "E. coli; [2]", "result": 62.5, "unit": "µM"}, {"measurement": "MIC90", "setting": "E. coli; [3]", "result": 62.5, "unit": "µM"}, {"measurement": "MIC", "setting": "E. coli; broth microdilution in MHB, 18–24 h, read-out: MIC90 E. coli", "result": 15.6, "unit": "µM"}, {"measurement": "improvement in antibacterial activity against E. coli compared to the parent compound", "setting": "E. coli", "result": "> 16", "unit": "fold"}, {"measurement": "IC50", "setting": "MRC-5 human fibroblasts", "result": 150, "unit": "µM"}, {"measurement": "toxicity to mammalian cells (in words)", "setting": "MRC-5 human fibroblasts; at 31.2 µM", "result": "non-toxic"}]}]}
